In patent publication US10287267B2, “Isoquinolin-3-yl carboxamides and preparation and use thereof” (Samumed, LLC, priority 2016, dated 2019):
pEC50: −log10 of the molar value.

Experiments:
[1] = tested on: Wnt pathway (Sp5-Luc reporter, TCF/LEF binding sites) in SW480 colon carcinoma cells; assay: Screening assay for Wnt activity: Sp5-Luc reporter gene assay; type: cell-based, human; settings: Homo sapiens; Sp5-Luc reporter, SW480 cells, 36 to 48 hours;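 further: firefly luciferase luminescence read in stably transduced SW480 cells carrying the Sp5 promoter reporter with eight TCF/LEF sites, compounds given in 0.1% DMSO final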
Procedure: The screening assay for Wnt activity is described as follows.
Following incubation, 15 μl of BriteLite Plus luminescence reagent (Perkin Elmer) was added to each well of the 384-well assay plates. The plates were placed on an orbital shaker for 2 min and then luminescence was quantified using the Envision (Perkin Elmer) plate reader.

[2] = tested on: α-smooth muscle actin (αSMA) positive LL29 cells; assay: Inhibition of fibrotic process: αSMA in TGF-β1 treated primary human fibroblasts from IPF patients; type: cell-based; settings: Homo sapiens, Fibroblast; for pEC50: 96 h, Table 8, LL29 fibroblasts from IPF patients, TGF-β1 20 ng/mL, 4 days, dose-response 10 μM to 0.94 nM;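 on all read-outs here: controls were TGF-β1 stimulated wells with DMSO vehicle (positive) and cells given DMSO alone (negative), cultured in F12 medium with 1% fetal bovine serum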
[3] = tested on: SW480 colon carcinoma cells; assay: Cell viability assay (CellTiter-Glo); type: cell-based, human; settings: Homo sapiens, 96 h; SW480 cells, CellTiter-Glo, four days incubation
IL-6 = IL-6 inhibition in LPS-stimulated human peripheral blood mononuclear cells (HTRF); type: cell-based; settings: Homo sapiens, PBMC; for pEC50: Table 9, huPBMCs, LPS 50 ng/mL, 22 hours, dose-response starting from 10 μM; for inhibition at 10 µM: read-out: percent value in parentheses beside EC50 >10 μM;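 on all read-outs here: IL-6 detected by HTRF with an XL665- and Cryptate-labelled anti-IL-6 antibody pair, samples run in duplicate, EC50 obtained from a four-parameter Levenberg-Marquardt curve fit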
Procedure: After 22 hour incubation, a mixture of anti-IL6 XL665 and anti-IL-6 Cryptate diluted in reconstitution buffer (Catalog #62IL6PEC, Cisbio Inc., Bedford, Mass.) was added to each well. […] All samples were processed in duplicate. […] EC50 was determined using software generated by Dotmatics Limited (Windhill Bishops Stortford Herts, UK) using the Levenberg-Marquardt 4 parameter fitting procedure with finite different gradients.

[4] = target: recombinant DYRK1A kinase (Homo sapiens (Human), UniProt Q13627); assay: DYRK1A kinase assay (Ser/Thr 18 peptide Z-lyte FRET); type: biochemical; settings: 30 μM ATP, 1 h room temperature;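 further: Read-out is the coumarin to fluorescein emission ratio, referenced to unphosphorylated (0%) and phosphorylated (100%) Ser/Thr 18 peptide controls, values from dose-response curves by non-linear regression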
recombinant GSK3β kinase = recombinant GSK3β kinase (Homo sapiens (Human), UniProt P49841); assay: GSK3β kinase assay (Ser/Thr 09 peptide Z-lyte FRET); type: biochemical; settings: 46 μM ATP, 1 h room temperature;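 further: kinase activity read as coumarin to fluorescein emission ratio, 11-point threefold dilutions from 10 µM to 0.0003 µM in duplicate, unphosphorylated and phosphorylated peptide as 0% and 100% controls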
[5] = tested on: Tau phosphorylation at Ser396 (pSer396); assay: Tau phosphorylation assay (pSer396 ELISA / western blot) in SH-SY5Y cells; type: cell-based, human; settings: Homo sapiens; SH-SY5Y cells, overnight (16-18 h) exposure; read-out: pSer396 Tau EC50;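 further: EC50 for reduction of Tau pSer396 in lysed cells, measured by colorimetric ELISA or chemiluminescent western blot, both using the same pSer396 antibody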

Sequence of recombinant GSK3β kinase (P49841 whole entry): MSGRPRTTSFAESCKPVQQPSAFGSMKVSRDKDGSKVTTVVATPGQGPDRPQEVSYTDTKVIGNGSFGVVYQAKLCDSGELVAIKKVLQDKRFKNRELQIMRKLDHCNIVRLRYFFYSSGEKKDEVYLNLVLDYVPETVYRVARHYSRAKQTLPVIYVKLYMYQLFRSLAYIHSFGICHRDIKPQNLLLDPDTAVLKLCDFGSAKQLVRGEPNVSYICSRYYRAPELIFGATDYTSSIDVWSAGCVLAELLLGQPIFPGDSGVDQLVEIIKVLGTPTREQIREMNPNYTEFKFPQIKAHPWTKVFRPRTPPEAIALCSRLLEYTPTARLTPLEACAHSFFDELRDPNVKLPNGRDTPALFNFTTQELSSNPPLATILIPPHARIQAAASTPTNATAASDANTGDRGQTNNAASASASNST

O=C(Nc1cc2cc(-c3cnn4c3CN(CCF)CC4)ccc2cn1)C1CCNCC1 [Compound 1022, N-(6-(5-(2-Fluoroethyl)-4,5,6,7-tetrahydropyrazolo[1,5-a]pyrazin-3-yl)isoquinolin-3-yl)piperidine-4-carboxamide] was tested, and the pEC50 [1] was 5.86, the pEC50 [2] was 6.65 and the pEC50 [3] was 5.48. For the same compound, the pEC50 (IL-6) was 5.48, the pEC50 [4] was 8.38 and the pEC50 (recombinant GSK3β kinase) was 6.91. For the same compound, the pEC50 [5] was 5.02.

O=C(Nc1cc2cc(-c3cncs3)ccc2cn1)C1CCN(C(=O)CN2CCCC2)CC1 [Compound 741, 1-(2-(Pyrrolidin-1-yl)acetyl)-N-(6-(thiazol-5-yl)isoquinolin-3-yl)piperidine-4-carboxamide] was tested, and the pEC50 [1] was 6.35, the pEC50 [2] was 6.76 and the pEC50 [3] was 6.34. For the same compound, the pEC50 (IL-6) was 6.42, the pEC50 [4] was 9.05 and the pEC50 (recombinant GSK3β kinase) was 6.97. The pEC50 [5] was 6.28.

Work on CC(C(=O)Nc1cc2cc(-c3cncn3C)ccc2cn1)N1CCCC1 (stereo not drawn) [Compound 579, N-(6-(1-Methyl-1H-imidazol-5-yl)isoquinolin-3-yl)-2-(pyrrolidin-1-yl) propanamide] yielded a pEC50 [1] of 6.05, a pEC50 [2] of 6.78 and a pEC50 [3] of 6.02. For the same compound, the pEC50 (IL-6) was 5.99, the pEC50 [4] was 7.60 and the pEC50 (recombinant GSK3β kinase) was 7.32. For the same compound, the pEC50 [5] was 7.21.

CCN(CC)CC(=O)Nc1cc2cc(-c3cnn(C)c3)ccc2cn1 [Compound 303, 2-(Diethylamino)-N-(6-(1-methyl-1H-pyrazol-4-yl)isoquinolin-3-yl) acetamide] was tested, and the pEC50 [1] was 5.01, the pEC50 [2] was 6.09 and the pEC50 [3] was 5.11. The pEC50 (IL-6) was 5.28, the pEC50 [4] was 8.10 and the pEC50 (recombinant GSK3β kinase) was 7.05. It also gave a pEC50 [5] of 6.11.

With Cn1ncc(-c2ccc3cnc(NC(=O)C4CC5(C4)CN(CCF)C5)cc3c2)c1CN1CCCCC1 [Compound 791, 2-(2-Fluoroethyl)-N-(6-(1-methyl-5-(piperidin-1-ylmethyl)-1H-pyrazol-4-yl)isoquinolin-3-yl)-2-azaspiro[3.3]heptane-6-carboxamide] the pEC50 [1] was 6.67, the pEC50 [2] was 7.17 and the pEC50 [3] was 6.86. For the same compound, the pEC50 (IL-6) was 6.46, the pEC50 [4] was 8.66 and the pEC50 (recombinant GSK3β kinase) was 8.30. For the same compound, the pEC50 [5] was 7.26.

Cc1nnc(-c2ccc3cnc(NC(=O)C4CCN(C(=O)c5ccccc5)CC4)cc3c2)s1 [Compound 921, 1-Benzoyl-N-(6-(5-methyl-1,3,4-thiadiazol-2-yl)isoquinolin-3-yl)piperidine-4-carboxamide] gave a pEC50 [1] of 6.11, a pEC50 [2] of 7.12 and a pEC50 [3] of 5.79. For the same compound, the inhibition at 10 µM (IL-6) was 9.9%, the pEC50 (IL-6) was < 5.00 and the pEC50 [4] was 8.68. For the same compound, the pEC50 (recombinant GSK3β kinase) was 8.30 and the pEC50 [5] was 6.96.

For Cn1cc(-c2cc3cc(NC(=O)C4CCN(CCF)CC4)ncc3cc2F)cn1 [Compound 371, N-(7-Fluoro-6-(1-methyl-1H-pyrazol-4-yl)isoquinolin-3-yl)-1-(2-fluoroethyl) piperidine-4-carboxamide], the pEC50 [1] was 6.19, the pEC50 [2] was 6.40 and the pEC50 [3] was 5.97. It also gave a pEC50 (IL-6) of 5.92, a pEC50 [4] of 8.62 and a pEC50 (recombinant GSK3β kinase) of 7.64. For the same compound, the pEC50 [5] was 6.24.

CN1CCC(C(=O)Nc2cc3cc(-c4ccn(C)n4)ccc3cn2)CC1 [Compound 264, 1-Methyl-N-(6-(1-methyl-1H-pyrazol-3-yl)isoquinolin-3-yl)piperidine-4-carboxamide] was tested, and the pEC50 [1] was < 5.00, the pEC50 [2] was < 5.00 and the inhibition at 10 µM ([2]; read-out: percent value in parentheses beside EC50 >10 μM) was 11.7%. The pEC50 [3] was 5.06, the inhibition at 10 µM (IL-6) was 4% and the pEC50 (IL-6) was < 5.00. For the same compound, the pEC50 [4] was 6.46, the pEC50 (recombinant GSK3β kinase) was < 5.00 and the pEC50 [5] was < 5.00.

CC(=O)N1CCC(C(=O)Nc2cc3cc(-c4cnn(C)c4)ccc3cn2)CC1 [Compound 329, 1-Acetyl-N-(6-(1-methyl-1H-pyrazol-4-yl)isoquinolin-3-yl)piperidine-4-carboxamide] gave a pEC50 [1] of 5.93, a pEC50 [2] of 6.67 and a pEC50 [3] of 5.39. The pEC50 (IL-6) was 5.94, the pEC50 [4] was 8.57 and the pEC50 (recombinant GSK3β kinase) was 7.54. For the same compound, the pEC50 [5] was 6.28.
